# From patent publication US20250109127A1, “METHODS OF USE OF PHENOXYPROPYLAMINE COMPOUNDS TO TREAT DEPRESSION” (Minerva Neurosciences, Inc., priority 2013, published 2025)
# Several values for one entry are separate records, joined by “and”; a condition that tells them apart may be missing. Equal values may be shown once. Where a name gives a salt, the structure may show the parent alone.
# System: DOPAC release in the rat prefrontal cortex
# Experiment: Microdialysis: DOPAC release in prefrontal cortex after I.P. administration
# Assay type: in vivo
# Conditions: for DOPAC (% of respective basal), individual animal: 0.1 mg/kg I.P., c2-c9 = R#13,14,20,19,25,26,31,32; for DOPAC (% of respective basal), individual animal / DOPAC release, individual animals: hydrochloride; for DOPAC release, MEAN / DOPAC release, individual animals: 3 mg/kg IP; for DOPAC release, MEAN: n = 8; for DOPAC release, individual animals: per animal R#15,16,21,22,27,28,09,10
# Procedure: The aim of the study was to evaluate, using microdialysis, the effects of an intraperitoneal (I.P.) administration in rats of three different doses of SON-117 on dopamine and its metabolites, serotonin and its metabolite (5-HIAA), and norepinephrine levels in prefrontal cortex.
# Thirty-two adult male Wistar rats were used for the whole study (4 groups of eight animals planned for the study, Table 1).
# Surgery was performed on rats weighing about 300 g at the beginning of the experiments. Rats were anaesthetized with Ketamine (50 mg/kg) & Xylazine (15 mg/kg) by intramuscular administration. The animals were placed in a stereotaxic apparatus in the flat-skull position at a constant setting of −3.3 mm between ear bars and the incisor bar. The animals were treated with a local anesthesic (xylocaine 1%, Astra Zeneca) and an analgesic (Temgesic, from Schering Plough, 0.05 mg/kg, s.c.). A rostrocaudal midline incision was made with a lancet to expose the dorsal skull surface. The “stereotaxic zero” was defined by the Bregma in accordance with Paxinos and Watson's atlas (1986). A hole was drilled in the skull with a drill and the meninges were pierced with a sterile needle to implant a CMA12 guide cannula which later received the dialysis probe.
# Coordinates used for implanting guide cannula in prefrontal cortex from Bregma were anteroposterior 3.7 mm, mediolateral 0.8 mm, and dorsoventral −2 mm (top of the probe was at −5 mm). The guide cannula was fixed to the skull with two stainless steel screws (1.88 mm outside diameter) anchored. An application of dental cement was added. A plastic collar allowed each animal to be tethered to a Swivel assembly of the CMA 120 awake animal system. Following surgery, rats were kept in individual cages and allowed to recover for a minimum of 3-5 days before the experimentation. The rats were handled and put in plastic bowl for 10 min at least every day to habituate the animals to their new environment for the dialysis. An I.P. administration with saline was also performed every day.
# Dialysis probes (CMA12/3 mm, membrane, 20 kD cut-off, Carnegie Medicine, Stockholm, Sweden), were carefully washed before inserting into the guide cannula. The wash was performed with the artificial cerebrospinal fluid (aCSF) medium (NaCl 147 mM, KCl 2.7 mM, CaCl2 1.2 mM, MgCl2 0.85 mM) at room temperature. The dialysis system was then equilibrated at 20° C. at a perfusion rate of 1 μl/min with a Carnegie pump (CMA100). All catheters (FEP tubing, internal volume of 1.2 μl/10 cm, and tubing adaptors) used for microdialysis were treated in the same conditions.
# The probes duly prepared were inserted into the guide cannula and the CMA120 Swivel assembly secured to the animal using a plastic collar. Flow through the dialysis probe with aCSF was maintained at a rate of 1 μl/min during the whole experimentation. The first four fractions (corresponding to 2 hours) were discarded to avoid the effects of parenchymal disturbance and to ensure that an approximate steady-state level was reached. Fractions were then collected over a period of 8.5 h during which time the animals remained quiet. The dialysates were automatically collected with an autosampler (microfraction collector CMA 140, Carnegie Medicin) and stored at −80° C. until analysis. […] Perfusion was then maintained for 7 hours with aCSF. The dialysates (30 μl) were collected into 300 μl vials, transferred into dry ice and then kept frozen (−80° C.) until analysis. Frozen samples were shipped to a partner for analysis. At the end of the microdialysis study, a PBS with colored ink was perfused through the probe in order to visualize the dialyzed area.
# Catecholamine assay: Concentrations of dopamine, DOPAC, HVA, 5-HIAA, 5-HT, and norepinephrin were determined for each sample by HPLC coupled with electrochemical detection.
smiles,measurement,setting,value
"Cc1nnc(-c2cc3c(OC[C@@H](O)CN4CCC(c5ccc(Cl)c(Cl)c5)CC4)cccc3o2)o1 [SON-117, (S)-1-(4-(3,4-dichlorophenyl)piperidino)-3-(2-(5-methyl-1,3,4-oxadiazol-2-yl)benzo(b)furan-4-yloxy)-2-propanol hydrochloride]","DOPAC (% of respective basal), individual animal",T30-T1 h,90.11 % of respective basal and 105.88 % of respective basal and 110.45 % of respective basal and 113.21 % of respective basal and 95.59 % of respective basal and 110.39 % of respective basal and 128.2 % of respective basal and 82.35 % of respective basal
same,"DOPAC (% of respective basal), individual animal",T1 h 30-T2 h,101.64 % of respective basal and 109.71 % of respective basal and 83.87 % of respective basal and 449.73 % of respective basal and 128.96 % of respective basal and 72.88 % of respective basal and 153.26 % of respective basal and 56.49 % of respective basal
same,"DOPAC (% of respective basal), individual animal",T1 h-T1 h 30,79.47 % of respective basal and 158.61 % of respective basal and 92.14 % of respective basal and 126.98 % of respective basal and 119.92 % of respective basal and 119.37 % of respective basal and 135.5 % of respective basal and 66.42 % of respective basal
same,"DOPAC (% of respective basal), individual animal",T2 h 30-T3 h,60.75 % of respective basal and 112.82 % of respective basal and 69.17 % of respective basal and 79.31 % of respective basal and 152.5 % of respective basal and 113.62 % of respective basal and 142.16 % of respective basal and 23.28 % of respective basal
same,"DOPAC (% of respective basal), individual animal",T2 h-T2 h 30,176.59 % of respective basal and 43.90 % of respective basal and 80.18 % of respective basal and 123.61 % of respective basal and 132.53 % of respective basal and 78.83 % of respective basal and 142.03 % of respective basal and 39.56 % of respective basal
same,"DOPAC (% of respective basal), individual animal",T3 h 30-T4 h,53.09 % of respective basal and 116.09 % of respective basal and 68.59 % of respective basal and 73.49 % of respective basal and 180.72 % of respective basal and 107.13 % of respective basal and 128.91 % of respective basal and 40.67 % of respective basal
same,"DOPAC (% of respective basal), individual animal",T3 h-T3 h 30,80.45 % of respective basal and 87.7 % of respective basal and 65.69 % of respective basal and 75.20 % of respective basal and 134.32 % of respective basal and 93.13 % of respective basal and 140.15 % of respective basal and 50.88 % of respective basal
same,"DOPAC (% of respective basal), individual animal",T4 h 30-T5 h,304.57 % of respective basal and 95.87 % of respective basal and 47.53 % of respective basal and 20.13 % of respective basal and 163.90 % of respective basal and 118.96 % of respective basal and 157.11 % of respective basal and 54.52 % of respective basal
same,"DOPAC (% of respective basal), individual animal",T4 h-T4 h 30,345.4 % of respective basal and 109.04 % of respective basal and 79.96 % of respective basal and 110.35 % of respective basal and 164.47 % of respective basal and 110.81 % of respective basal and 148.54 % of respective basal and 71.60 % of respective basal
same,"DOPAC (% of respective basal), individual animal",T5 h 30-T6 h,316.35 % of respective basal and 107.67 % of respective basal and 58.65 % of respective basal and 83.02 % of respective basal and 133.93 % of respective basal and 99.81 % of respective basal and 135.88 % of respective basal and 46.79 % of respective basal
same,"DOPAC (% of respective basal), individual animal",T5 h-T5 h 30,342.56 % of respective basal and 121.60 % of respective basal and 61.68 % of respective basal and 79.4 % of respective basal and 139.09 % of respective basal and 96.46 % of respective basal and 144.84 % of respective basal and 50.64 % of respective basal
same,"DOPAC (% of respective basal), individual animal",T6 h 30-T7 h,344.74 % of respective basal and 120.8 % of respective basal and 139.44 % of respective basal and 80.52 % of respective basal
same,"DOPAC (% of respective basal), individual animal",T6 h-T6 h 30,362.18 % of respective basal and 142.01 % of respective basal and 23.55 % of respective basal and 82.92 % of respective basal and 136.09 % of respective basal and 101.05 % of respective basal and 125.76 % of respective basal and 48.95 % of respective basal
same,"DOPAC release, MEAN",T0-T30 min,87.96 % of respective basal
same,"DOPAC release, MEAN",T30-T1 h,90.03 % of respective basal
same,"DOPAC release, individual animals",T30-T1 h,101.17 % of respective basal and 98.27 % of respective basal and 70.16 % of respective basal and 93.38 % of respective basal and 83.10 % of respective basal and 96.90 % of respective basal and 90.68 % of respective basal and 86.57 % of respective basal
same,"DOPAC release, MEAN",T1 h 30-T2 h,109.73 % of respective basal
same,"DOPAC release, individual animals",T1 h 30-T2 h,148.73 % of respective basal and 196.92 % of respective basal and 78.99 % of respective basal and 114.35 % of respective basal and 65.05 % of respective basal and 98.86 % of respective basal and 85.04 % of respective basal and 87.02 % of respective basal
same,"DOPAC release, MEAN",T1 h-T1 h 30,107.74 % of respective basal
same,"DOPAC release, individual animals",T1 h-T1 h 30,183.03 % of respective basal and 117.43 % of respective basal and 106.09 % of respective basal and 101.67 % of respective basal and 88.00 % of respective basal and 90.78 % of respective basal and 85.51 % of respective basal and 89.44 % of respective basal
same,"DOPAC release, MEAN",T2 h 30-T3 h,92.73 % of respective basal
same,"DOPAC release, individual animals",T2 h 30-T3 h,122.00 % of respective basal and 99.60 % of respective basal and 70.87 % of respective basal and 93.90 % of respective basal and 65.07 % of respective basal and 108.76 % of respective basal and 94.51 % of respective basal and 87.10 % of respective basal
same,"DOPAC release, MEAN",T2 h-T2 h 30,95.46 % of respective basal
same,"DOPAC release, individual animals",T2 h-T2 h 30,111.98 % of respective basal and 121.35 % of respective basal and 63.44 % of respective basal and 89.04 % of respective basal and 75.53 % of respective basal and 92.91 % of respective basal and 122.88 % of respective basal and 86.52 % of respective basal
same,"DOPAC release, MEAN",T3 h 30-T4 h,94.20 % of respective basal
same,"DOPAC release, individual animals",T3 h 30-T4 h,111.27 % of respective basal and 111.84 % of respective basal and 80.10 % of respective basal and 101.37 % of respective basal and 69.94 % of respective basal and 101.03 % of respective basal and 82.44 % of respective basal and 95.58 % of respective basal
same,"DOPAC release, MEAN",T3 h-T3 h 30,102.63 % of respective basal
same,"DOPAC release, individual animals",T3 h-T3 h 30,114.26 % of respective basal and 115.76 % of respective basal and 98.98 % of respective basal and 103.32 % of respective basal and 65.78 % of respective basal and 96.52 % of respective basal and 80.53 % of respective basal and 145.86 % of respective basal
same,"DOPAC release, MEAN",T4 h 30-T5 h,90.86 % of respective basal
same,"DOPAC release, individual animals",T4 h 30-T5 h,99.05 % of respective basal and 111.45 % of respective basal and 86.88 % of respective basal and 84.18 % of respective basal and 65.99 % of respective basal and 114.07 % of respective basal and 88.90 % of respective basal and 76.33 % of respective basal
same,"DOPAC release, MEAN",T4 h-T4 h 30,97.50 % of respective basal
same,"DOPAC release, individual animals",T4 h-T4 h 30,114.70 % of respective basal and 111.85 % of respective basal and 76.78 % of respective basal and 121.97 % of respective basal and 69.65 % of respective basal and 96.91 % of respective basal and 88.65 % of respective basal and 99.52 % of respective basal
same,"DOPAC release, MEAN",T5 h 30-T6 h,93.52 % of respective basal
same,"DOPAC release, individual animals",T5 h 30-T6 h,100.08 % of respective basal and 108.82 % of respective basal and 106.21 % of respective basal and 79.12 % of respective basal and 64.79 % of respective basal and 94.19 % of respective basal and 96.33 % of respective basal and 96.49 % of respective basal
same,"DOPAC release, MEAN",T5 h-T5 h 30,105.66 % of respective basal
same,"DOPAC release, individual animals",T5 h-T5 h 30,96.11 % of respective basal and 118.05 % of respective basal and 106.17 % of respective basal and 90.70 % of respective basal and 68.08 % of respective basal and 136.44 % of respective basal and 128.39 % of respective basal and 101.33 % of respective basal
same,"DOPAC release, MEAN",T6 h 30-T7 h,101.08 % of respective basal
same,"DOPAC release, individual animals",T6 h 30-T7 h,100.91 % of respective basal and 128.07 % of respective basal and 103.29 % of respective basal and 98.33 % of respective basal and 67.98 % of respective basal
same,"DOPAC release, MEAN",T6 h-T6 h 30,97.93 % of respective basal
same,"DOPAC release, individual animals",T6 h-T6 h 30,89.69 % of respective basal and 125.97 % of respective basal and 108.08 % of respective basal and 99.61 % of respective basal and 70.30 % of respective basal and 104.34 % of respective basal and 87.50 % of respective basal
same,"DOPAC release, MEAN",T-30 min-T0 (before administration),94.88 % of respective basal
